Laboratory results published in patent US10039283B2, “Substituted pyrazolyl-nicotin(thio)amide derivatives and their use as fungicides” (BAYER CROPSCIENCE AKTIENGESELLSCHAFT, priority 2014, dated 2018).

Assay: Log P by HPLC on reversed phase, method [a], acidic range (0.1% formic acid)
Assay type: physicochemical
Conditions: LC-UV, 0.1% formic acid in water and acetonitrile

| Compound | LogP |
| --- | --- |
| Cc1c(NC(=O)c2cccnc2C(F)F)cnn1CCC(C)C [Example 2] | 2.01^[a] |
| CC(C)c1cccc(-n2ncc(NC(=O)c3cccnc3C(F)F)c2C(F)(F)F)c1 [Example 3] | 3.51^[a] |
| Cc1cnc(C(F)F)c(C(=O)Nc2cnn(-c3ccccc3)c2C(F)(F)F)c1 [Example 4] | 2.44^[a] |
| Cc1c(NC(=O)c2cccnc2C(F)F)cnn1-c1cccc(Cl)c1 [Example 5] | 2.25^[a] |
| Cc1c(NC(=O)c2cccnc2C(F)F)cnn1C(C)(C)C [Example 6] | 1.63^[a] |
| CCCCn1ncc(NC(=O)c2cccnc2C(F)F)c1C [Example 7] | 1.69^[a] |
| CCC(CC)n1ncc(NC(=O)c2cccnc2C(F)F)c1C [Example 8] | 1.89^[a] |
| O=C(Nc1cnn(-c2ccccc2)c1C(F)(F)F)c1cccnc1C(F)F [Example 9] | 2.53^[a] |
| O=C(Nc1cnn(-c2ccc(Cl)cc2)c1C(F)(F)F)c1cccnc1C(F)F [Example 10] | 3.02^[a] |
| Cc1c(NC(=O)c2cccnc2C(F)F)cnn1C1CCCC1 [Example 11] | 1.83^[a] |
| Cc1c(NC(=O)c2cccnc2C(F)F)cnn1-c1ccccc1 [Example 12] | 1.78^[a] |
| Cc1ccc(C)c(-n2ncc(NC(=O)c3cccnc3C(F)F)c2C)c1 [Example 13] | 2.25^[a] |
| CC(C)n1ncc(NC(=O)c2cccnc2C(F)F)c1C1CC1 [Example 14] | 1.68^[a] |
| Cc1nn(-c2cccc(F)c2)c(C)c1NC(=O)c1cccnc1C(F)F [Example 15] | 1.99^[a] |
| Cc1nn(-c2cccc(F)c2)c(C)c1NC(=O)c1cccnc1C(F)(F)F [Example 16] | 2.27^[a] |
| Cc1nn(-c2ccccc2)c(C)c1NC(=O)c1cccnc1C(F)F [Example 17] | 1.81^[a] |
| Cc1nn(-c2ccccc2)c(C)c1NC(=O)c1cccnc1C(F)(F)F [Example 18] | 2.07^[a] |
| O=C(Nc1cnn(-c2ccc(Cl)cc2)c1C(F)F)c1cccnc1C(F)F [Example 23] | 2.69^[a] |
| O=C(Nc1cnn(-c2cccc(Cl)c2)c1C(F)F)c1cccnc1C(F)F [Example 24] | 2.69^[a] |

| Compound | LogP |
| --- | --- |
| O=C(Nc1cnn(-c2cccc(F)c2)c1C(F)F)c1cccnc1C(F)F [Example 25] | 2.37^[a] |
| O=C(Nc1cnn(-c2cccc(C(F)F)c2)c1C(F)F)c1cccnc1C(F)F [Example 26] | 2.48^[a] |
| Cc1ccccc1-n1ncc(NC(=O)c2cccnc2C(F)F)c1C(F)F [Example 27] | 2.37^[a] |
| O=C(Nc1cnn(-c2ccc(Br)cc2)c1C(F)F)c1cccnc1C(F)F [Example 28] | 2.80^[a] |
| O=C(Nc1cnn(-c2cc(F)cc(F)c2)c1C(F)F)c1cccnc1C(F)F [Example 29] | 2.62^[a] |
| O=C(Nc1cnn(-c2cccc(C(F)(F)F)c2)c1C(F)F)c1cccnc1C(F)F [Example 30] | 2.88^[a] |
| O=C(Nc1cnn(-c2ccccc2C(F)(F)F)c1C(F)F)c1cccnc1C(F)F [Example 31] | 2.51^[a] |
| O=C(Nc1cnn(-c2ccc(F)cc2)c1C(F)F)c1cccnc1C(F)F [Example 32] | 2.20^[a] |
| O=C(Nc1cnn(-c2ccccc2F)c1C(F)F)c1cccnc1C(F)F [Example 33] | 2.32^[a] |
| Cc1nn(-c2ccccc2)c(Br)c1NC(=O)c1cccnc1C(F)F [Example 35] | 2.07^[a] |
| Cc1cnc(C(F)F)c(C(=O)Nc2cnn(C(C)(C)C)c2C)c1 [Example 36] | 1.90^[a] |
| Cc1c(NC(=O)c2ccc(Cl)nc2C(F)F)cnn1C(C)(C)C [Example 37] | 2.25^[a] |
| CCC(CC)n1ncc(NC(=O)c2cc(C)cnc2C(F)F)c1C [Example 38] | 2.12^[a] |
| CCC(CC)n1ncc(NC(=O)c2ccc(Cl)nc2C(F)F)c1C [Example 39] | 2.51^[a] |
| Cc1cnc(C(F)F)c(C(=O)Nc2cnn(C3CCCC3)c2C)c1 [Example 40] | 2.09^[a] |
| Cc1c(NC(=O)c2ccc(Cl)nc2C(F)F)cnn1C1CCCC1 [Example 41] | 2.46^[a] |
| Cc1cnc(C(F)F)c(C(=O)Nc2cnn(C(C)C)c2C2CC2)c1 [Example 42] | 1.95^[a] |
| CC(C)n1ncc(NC(=O)c2ccc(Cl)nc2C(F)F)c1C1CC1 [Example 43] | 2.33^[a] |
| Cc1ccc(C)c(-n2ncc(NC(=O)c3ccc(Cl)nc3C(F)F)c2C)c1 [Example 45] | 2.88^[a] |

| Compound | LogP |
| --- | --- |
| Cc1c(NC(=O)c2cccnc2C(F)F)cnn1-c1ccc(Cl)cc1 [Example 46] | 2.25^[a] |
| Cc1c(NC(=O)c2cccnc2C(F)F)cnn1-c1ccccc1Cl [Example 47] | 1.94^[a] |
| Cc1cccc(-n2ncc(NC(=O)c3cccnc3C(F)F)c2C)c1 [Example 48] | 2.11^[a] |
| O=C(Nc1cnn(-c2ccccc2C(F)(F)F)c1C(F)(F)F)c1cccnc1C(F)F [Example 49] | 2.82^[a] |
| O=C(Nc1cnn(-c2ccc(C(F)(F)F)cc2)c1C(F)(F)F)c1cccnc1C(F)F [Example 50] | 3.21^[a] |
| O=C(Nc1cnn(-c2cccc(C(F)(F)F)c2)c1-c1cccc(Cl)c1)c1cccnc1C(F)F [Example 53] | 3.48^[a] |
| O=C(Nc1cnn(-c2cccc(Cl)c2)c1-c1cccc(Cl)c1)c1cccnc1C(F)F [Example 54] | 3.31^[a] |
| O=C(Nc1cnn(-c2ccc(C(F)(F)F)cc2)c1-c1cccc(Cl)c1)c1cccnc1C(F)F [Example 55] | 3.58^[a] |
| O=C(Nc1cnn(-c2ccc(Cl)cc2)c1-c1cccc(Cl)c1)c1cccnc1C(F)F [Example 56] | 3.35^[a] |
| O=C(Nc1cnn(-c2ccccc2F)c1-c1cccc(Cl)c1)c1cccnc1C(F)F [Example 57] | 2.75^[a] |
| O=C(Nc1cnn(-c2cccc(F)c2)c1-c1cccc(Cl)c1)c1cccnc1C(F)F [Example 58] | 2.98^[a] |
| O=C(Nc1cnn(-c2cccc(Br)c2)c1C(F)(F)F)c1cccnc1C(F)F [Example 60] | 3.09^[a] |
| O=C(Nc1cnn(-c2cc(F)cc(F)c2)c1C(F)(F)F)c1cccnc1C(F)F [Example 61] | 2.88^[a] |
| O=C(Nc1cnn(-c2cccc(F)c2)c1C(F)(F)F)c1cccnc1C(F)F [Example 62] | 2.66^[a] |
| O=C(Nc1cnn(-c2ccc(Br)cc2)c1C(F)(F)F)c1cccnc1C(F)F [Example 63] | 3.13^[a] |
| O=C(Nc1cnn(-c2cccc(C(F)F)c2)c1C(F)(F)F)c1cccnc1C(F)F [Example 64] | 2.71^[a] |
| Cc1cnc(C(F)F)c(C(=O)Nc2cnn(-c3cccc(Cl)c3)c2C)c1 [Example 65] | 2.51^[a] |
| Cc1c(NC(=O)c2ccc(Cl)nc2C(F)F)cnn1-c1cccc(Cl)c1 [Example 66] | 2.88^[a] |
| Cc1cccc(-n2ncc(NC(=O)c3cc(C)cnc3C(F)F)c2C)c1 [Example 67] | 2.35^[a] |

Same assay, conditions: reversed phase HPLC column, LC-UV, 0.1% formic acid in water and acetonitrile

| Compound | chromatographic logP |
| --- | --- |
| O=C(Nc1cnn(-c2ccccc2)c1C(F)(F)F)c1ccc(Cl)nc1C(F)F [Example 1, 6-chloro-2-(difluoromethyl)-N-[1-phenyl-5-(trifluoromethyl)-1H-pyrazol-4-yl]nicotinamide] | 2.8 |
| FC(F)c1cccc(-n2ncc(NC(=S)c3cccnc3C(F)F)c2C(F)F)c1 [Example 34, 2-(difluoromethyl)-N-{5-(difluoromethyl)-1-[3-(difluoromethyl)phenyl]-1H-pyrazol-4-yl}pyridine-3-carbothioamide] | 2.9 |
